In ChEMBL document CHEMBL1201862, “PubChem BioAssay data set” (2004):
Active and inactive are the calls of the source.

Key:
[1] = molecular target: T1, Corticotropin-releasing factor receptor 2/Corticotropin-releasing factor-binding protein (Homo sapiens, UniProt P24387+Q13324); assay: activators of CRF receptor 2 with binding protein – uHTS hits, confirmation (AID 602473); type: functional; details: read-out: EC50_Mean
T1 sequence (Q13324 whole entry): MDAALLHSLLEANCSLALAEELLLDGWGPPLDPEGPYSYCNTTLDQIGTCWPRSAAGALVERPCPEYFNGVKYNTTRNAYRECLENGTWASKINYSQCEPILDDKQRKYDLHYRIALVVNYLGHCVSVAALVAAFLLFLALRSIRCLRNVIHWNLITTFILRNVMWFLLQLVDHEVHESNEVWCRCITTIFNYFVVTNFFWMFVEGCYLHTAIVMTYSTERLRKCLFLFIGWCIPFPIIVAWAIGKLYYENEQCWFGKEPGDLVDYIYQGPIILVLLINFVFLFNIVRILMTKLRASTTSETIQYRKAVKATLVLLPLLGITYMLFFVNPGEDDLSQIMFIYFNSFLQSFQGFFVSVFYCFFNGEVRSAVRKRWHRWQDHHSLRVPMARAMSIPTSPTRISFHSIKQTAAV
T1 sequence (P24387 whole entry): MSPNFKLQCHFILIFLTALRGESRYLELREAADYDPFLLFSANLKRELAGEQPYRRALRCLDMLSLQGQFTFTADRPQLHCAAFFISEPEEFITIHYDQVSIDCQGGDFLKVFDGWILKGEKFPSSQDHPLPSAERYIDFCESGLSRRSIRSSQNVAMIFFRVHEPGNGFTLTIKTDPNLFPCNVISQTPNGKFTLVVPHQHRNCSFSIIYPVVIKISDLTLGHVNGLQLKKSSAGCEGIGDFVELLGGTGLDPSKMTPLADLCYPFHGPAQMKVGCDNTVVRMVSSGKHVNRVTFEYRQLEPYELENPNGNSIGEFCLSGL

[2] = molecular target: T1, Corticotropin-releasing factor receptor 2/Corticotropin-releasing factor-binding protein; assay: Dose Response confirmation of uHTS hits for small molecule antagonists of the CRF-binding protein and CRF-R2 receptor complex.; type: functional; details: read-out: IC50_Mean
[3] = molecular target: T2, Heat shock factor protein 1 (Mus musculus, UniProt P38532); assay: inhibition of MG132-induced HSE-luciferase signal, confirmation, cell-based, NIH3T3, luminescence, dose retest (AID 2382); type: functional;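 further: NIH3T3 fibroblasts with HSF1-driven luciferase reporter stressed by proteasome inhibitor MG132; luminescence from HSF1-driven luciferase expression after 8 hours of MG132 stress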
T2 sequence (P38532 whole entry): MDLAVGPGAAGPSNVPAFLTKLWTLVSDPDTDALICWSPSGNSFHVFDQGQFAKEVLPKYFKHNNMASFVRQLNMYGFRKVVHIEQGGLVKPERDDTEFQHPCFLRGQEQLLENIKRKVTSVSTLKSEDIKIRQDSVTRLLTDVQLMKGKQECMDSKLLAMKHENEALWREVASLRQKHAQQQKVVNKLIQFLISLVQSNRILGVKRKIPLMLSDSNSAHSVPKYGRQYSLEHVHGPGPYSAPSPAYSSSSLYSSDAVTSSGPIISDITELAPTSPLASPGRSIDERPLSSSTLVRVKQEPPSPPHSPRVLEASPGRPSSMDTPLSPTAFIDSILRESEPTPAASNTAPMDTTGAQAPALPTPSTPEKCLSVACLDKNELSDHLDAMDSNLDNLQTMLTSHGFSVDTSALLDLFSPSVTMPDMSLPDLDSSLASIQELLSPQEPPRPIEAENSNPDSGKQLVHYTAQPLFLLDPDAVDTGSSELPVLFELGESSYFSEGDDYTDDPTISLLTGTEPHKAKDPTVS

Cytochrome P450 2C19 = Cytochrome P450 2C19 (Homo sapiens, UniProt P33261); assay: Cytochrome panel assay with activity outcomes. Panel member name: p450-cyp2c19 Compounds with AC50 equal or less than 10 uM are considered active; type: functional
Chain of Cytochrome P450 2C19 (P33261 whole entry): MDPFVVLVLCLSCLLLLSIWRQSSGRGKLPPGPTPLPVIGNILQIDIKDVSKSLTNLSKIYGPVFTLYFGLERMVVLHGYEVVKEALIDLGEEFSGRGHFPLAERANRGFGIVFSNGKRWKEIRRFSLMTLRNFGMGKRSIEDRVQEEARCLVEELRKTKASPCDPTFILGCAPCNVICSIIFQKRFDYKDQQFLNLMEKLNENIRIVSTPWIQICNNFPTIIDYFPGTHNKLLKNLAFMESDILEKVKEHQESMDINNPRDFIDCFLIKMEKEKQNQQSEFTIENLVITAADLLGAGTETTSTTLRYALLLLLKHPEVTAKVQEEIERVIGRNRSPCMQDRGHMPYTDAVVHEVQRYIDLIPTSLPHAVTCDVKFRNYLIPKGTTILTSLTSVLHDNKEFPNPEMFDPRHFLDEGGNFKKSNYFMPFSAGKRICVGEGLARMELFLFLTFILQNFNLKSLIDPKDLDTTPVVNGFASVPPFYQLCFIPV

[4] = inhibitors of firefly luciferase expression or activity, dose response, H4 neuroglioma cells, luminescence (AID 1990); type: functional, cell-based
[5] = Luminescence Cell-Based Dose Response HTS to Identify Inhibitors of 5'UTR Stem-Loop Driven Prion Protein mRNA Translation in H4 Neuroglioblastoma Cells. [Related pubchem assays: 1827 (Project Summary), 1813 (Primary HTS)]; type: functional
[6] = inhibitors of SNCA 5'UTR-driven reporter translation, confirmation, H4 neuroglioma cells, luminescence (AID 1988); type: functional, cell-based
[7] = molecular target: T2, Heat shock factor protein 1; assay: HSF1 potentiators in luciferase reporter cells, confirmation, cell-based, NIH3T3, luminescence, dose retest (AID 435004); type: functional;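 further: stress induced by proteasome inhibitor MG132 added 30 min after compound; luciferase reporter driven by HSF1 response element in NIH3T3 cells; actives raise luminescence as potentiators of the MG132 stress response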
Cytochrome P450 2C9 = Cytochrome P450 2C9 (Homo sapiens, UniProt P11712)
Chain of Cytochrome P450 2C9 (P11712 whole entry): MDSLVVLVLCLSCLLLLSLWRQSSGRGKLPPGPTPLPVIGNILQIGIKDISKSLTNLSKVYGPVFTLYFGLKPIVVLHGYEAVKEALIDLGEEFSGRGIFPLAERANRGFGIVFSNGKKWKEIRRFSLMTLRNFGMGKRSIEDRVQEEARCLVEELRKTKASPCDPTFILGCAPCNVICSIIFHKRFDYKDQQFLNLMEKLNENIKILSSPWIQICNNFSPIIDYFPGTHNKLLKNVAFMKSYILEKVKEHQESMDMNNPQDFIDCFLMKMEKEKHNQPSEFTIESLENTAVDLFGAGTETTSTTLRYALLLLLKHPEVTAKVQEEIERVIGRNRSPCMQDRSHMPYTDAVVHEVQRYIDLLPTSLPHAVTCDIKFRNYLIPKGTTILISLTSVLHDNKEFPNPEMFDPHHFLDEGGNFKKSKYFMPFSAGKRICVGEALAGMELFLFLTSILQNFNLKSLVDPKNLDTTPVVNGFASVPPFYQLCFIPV

Cytochrome P450 2D6 = Cytochrome P450 2D6 (Homo sapiens, UniProt P10635);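 further: CYP2D6 member of a cytochrome P450 panel assay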
Chain of Cytochrome P450 2D6 (P10635 whole entry): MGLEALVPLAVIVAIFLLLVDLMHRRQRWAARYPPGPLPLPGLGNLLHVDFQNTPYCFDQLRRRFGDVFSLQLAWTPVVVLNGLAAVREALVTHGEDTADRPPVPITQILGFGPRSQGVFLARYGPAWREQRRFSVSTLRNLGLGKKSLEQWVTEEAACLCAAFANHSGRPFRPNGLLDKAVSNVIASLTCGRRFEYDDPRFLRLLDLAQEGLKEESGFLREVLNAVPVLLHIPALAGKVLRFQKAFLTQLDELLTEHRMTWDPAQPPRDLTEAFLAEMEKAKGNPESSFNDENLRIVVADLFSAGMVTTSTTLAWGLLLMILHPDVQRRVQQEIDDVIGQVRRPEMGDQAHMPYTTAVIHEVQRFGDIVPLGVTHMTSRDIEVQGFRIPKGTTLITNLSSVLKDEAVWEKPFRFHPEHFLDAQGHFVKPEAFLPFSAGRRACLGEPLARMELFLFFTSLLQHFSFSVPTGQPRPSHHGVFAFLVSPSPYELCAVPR

[8] = HEp-2 cell cytotoxicity, dose response, cytotoxicity control for RSV inhibitor project, HTS (AID 2410); type: functional; details: human respiratory syncytial virus
[9] = system: Streptococcus sp. 'group A'; assay: growth inhibition of control SK(-) GAS strain, dose response, counter-screen for streptokinase expression inhibitor project, luminescence, kanamycin, BacTiterGlo, confirmation (AID 1900); type: functional, organism-based
Streptococcus = assay: Group A Streptococcus viability loss, dose response, counter-screen for streptokinase expression inhibitor project, luminescence, BacTiterGlo (AID 1915); type: functional, organism-based;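 further: potency for reduction of bacterial viability or growth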

Cc1ccc(CN2CC(=O)N3[C@H]4c5cc(Cl)ccc5OC[C@@H]4[C@H](c4ccccc4)[C@]3(C)C2=O)cc1
EC50 [1]: > 53 µM (inactive)
IC50 [2]: > 47.1 µM (inactive)

CCCCN1CN=C(S)N(c2ccc(C(=O)OCC)cc2)C1
EC50 [3]: > 195 µM (not active)

Cc1ccc2c(c1)N(C(=O)CCC(=O)N1CCC3(CC1)OCCO3)CCO2
EC50 [3]: > 195 µM (not active)

CC(C)CNP(=S)(c1ccccc1)C(C)(C)C (configuration not stated)
EC50 [1]: > 53 µM (inactive)
IC50 [2]: > 47.1 µM (inactive)

Cc1noc(C)c1-c1cncnc1NCc1cccnc1
AC50 (Cytochrome P450 2C19; read-out: AC50): 15.8 µM (inconclusive)

C[n+]1cccc(CNC(=O)C=NO)c1
AC50 (Cytochrome P450 2C19; read-out: AC50): 10 µM (inconclusive)

CCN(C(=O)c1cc2c(O)nc3ccc(C)cc3c2s1)c1ccc(F)cc1
EC50 [3]: > 195 µM (not active)

O=C(Nc1ccccn1)c1cc(-c2cccc(Cl)c2)nc2ccccc12
EC50 [4]: > 120 µM (not active)
EC50 [5]: > 120 µM (not active)
EC50 [6]: 15.3 µM (active)

NC(=O)CSc1nnc([C@@H](N)Cc2c[nH]c3ccccc23)o1
EC50 [3]: > 195 µM (not active)

COc1ccc(NC(S)=Nc2ccc(C)c(S(=O)(=O)N3CCCCC3)c2)cc1
EC50 [3]: > 195 µM (not active)

O=C1CCN(C(=O)Nc2ccccc2Cl)N1
EC50 [7]: > 260 µM (inactive)

O=C(Nc1cccc2ccccc12)N1CC=CCC1
EC50 [1]: > 53 µM (inactive)
IC50 [2]: < 0.368 µM (active)

Cc1ccc(C(=O)N2CCN(C(=O)CN3CCOCC3)C2)cc1
EC50 [1]: > 53 µM (inactive)
IC50 [2]: > 47.1 µM (inactive)

O=C1N=C(N2CCOCC2)S/C1=C/c1cccs1
AC50 (Cytochrome P450 2C19; read-out: AC50): 25.1 µM (inconclusive)

CCNc1ncc2nc(-c3cccs3)c(=O)n(Cc3cccs3)c2n1
AC50 (Cytochrome P450 2C19; read-out: AC50): 10 µM (inconclusive)
AC50 (Cytochrome P450 2C9): 39.8 µM (inconclusive)

COc1ccc(CCN=C(NS(=O)(=O)c2ccc(Cl)cc2)c2ccccc2)cc1
EC50 [4]: > 120 µM (not active)
EC50 [5]: > 120 µM (not active)
EC50 [6]: > 120 µM (not active)

COc1ccc(C(=O)Nc2ccc(OCc3ccccc3)cc2)cc1[N+](=O)[O-]
EC50 [3]: 15.2 µM (active)

COc1ccccc1N1CCN(C2CCCN(C(=O)c3cc(C4CC4)on3)C2)CC1 (configuration not stated)
EC50 [1]: > 53 µM (inactive)
IC50 [2]: > 47.1 µM (inactive)

CCC(N=C(S)NC1CCCCC1)c1ccccc1 (configuration not stated)
EC50 [3]: > 195 µM (not active)

Clc1ccc(CSc2nnc(-c3sccc3-n3cccc3)o2)cc1
EC50 [7]: > 260 µM (inactive)
AC50 (Cytochrome P450 2C9): 14.1 µM (inconclusive)
AC50 (Cytochrome P450 2D6): 11.2 µM (inconclusive)

COc1ccc(N2CCN(C(=O)c3ccc(NS(=O)(=O)c4ccccc4)cc3)CC2)cc1
EC50 [3]: > 195 µM (not active)

O=C(N/N=C/C=C/c1ccccc1)c1[nH]nc2c1CCC2
EC50 [4]: 10.6 µM (inconclusive)
EC50 [6]: 3.42 µM (active)

Cc1cccc(Nc2ncccc2C(=O)O)c1C [NIXYLIC ACID]
EC50 [3]: > 195 µM (not active)

COc1cc(Br)cc(/C=N/N(CCO)C2=NS(=O)(=O)c3ccccc32)c1OC
EC50 [4]: 18.5 µM (active)
EC50 [5]: > 120 µM (not active)
EC50 [6]: 18.1 µM (active)

CN(CCC1CCCCO1)C(=O)CCc1nnc(CCCCc2ccccc2)o1 (configuration not stated)
EC50 [7]: 242 µM (active)

Fc1cccc(F)c1-c1nc(-c2ccncc2)no1
CC50 [8]: 38 µM (active)

CCC1=C(OC(=O)N(CC)CC)N2C(=O)O/C(=N\CC3CC3)[C@]2(Cc2ccccc2)[C@H]2C1=CC[C@H]1C(=O)N(c3ccccc3)C(=O)[C@H]12
CC50 [8]: 36.7 µM (active)

Cc1cc(C)n(-c2nc3c(c(=O)[nH]c(=O)n3C)n2CC(O)COc2ccc(Cl)cc2Cl)n1 (configuration not stated)
EC50 [4]: 11.6 µM (active)
EC50 [5]: 10.3 µM (active)
EC50 [6]: 9.24 µM (active)

O=C(NCCc1cn[nH]c1)C1CCC(=O)N(CCc2cccc(F)c2)C1 (configuration not stated)
EC50 [1]: > 53 µM (inactive)
IC50 [2]: > 47.1 µM (inactive)

COc1ccc(C(=O)Nc2cc(C(F)(F)F)ccc2-n2cnc3ccccc32)cc1
EC50 [7]: > 260 µM (inactive)

O=C(CCSc1ccc(Br)cc1)Nc1cccnc1
EC50 [1]: > 53 µM (inactive)
IC50 [2]: > 47.1 µM (inactive)

Cc1c(Cl)c([N+](=O)[O-])nn1CC(=O)NC1CCCCC1
EC50 [1]: > 53 µM (inactive)
IC50 [2]: > 47.1 µM (inactive)

Cc1cccc(NC(S)=Nc2ccc(Cl)c(Cl)c2)c1
EC50 [9]: 11.5 µM (active)
EC50 (Streptococcus): > 150 µM (not active)

Cc1ccccc1CS(=O)(=O)CCC(=O)NCCCN1CCN(c2ccccc2F)CC1
AC50 (Cytochrome P450 2C19): inconclusive
AC50 (Cytochrome P450 2C9): 5.62 µM (inconclusive)

O=S(=O)(N1CCCCC1)N1CCN(c2ccc(F)cc2)CC1
EC50 [3]: > 195 µM (not active)

Cc1[nH]c2ccccc2c1SCc1nnc(SCc2ccccc2)n1C
EC50 [1]: > 53 µM (inactive)
IC50 [2]: > 47.1 µM (inactive)

CO[C@H]1C=CO[C@@]2(C)Oc3c(C)c(O)c4c(O)c(c5c(nc6cc(C)ccn65)c4c3C2=O)NC(=O)C(C)=CC=C[C@H](C)[C@H](O)[C@@H](C)[C@@H](O)[C@@H](C)[C@H](OC(C)=O)[C@@H]1C
EC50 [9]: < 0.06 µM (active)
EC50 (Streptococcus): 0.071 µM (active)

Cc1ccc(S(=O)(=O)NNC(=O)c2cnn(-c3ccc(Cl)cc3)c2C(F)(F)F)cc1
EC50 [7]: > 260 µM (inactive)

Cc1ccc(C(=O)Nc2cccnc2Oc2ccc(Cl)cc2)cc1
EC50 [4]: 17.6 µM (active)
EC50 [5]: > 120 µM (not active)
EC50 [6]: > 120 µM (not active)

Cc1ccc(S(=O)(=O)CCN2CCN(c3ccccc3)CC2)cc1
EC50 [7]: > 260 µM (inactive)

Cc1ccc(/C=C2/NC(=O)N(Cc3ccc(Br)cc3)C2=O)o1
EC50 [7]: > 260 µM (inactive)

CCOC(=O)c1c(-c2ccc(OC)cc2)csc1NC(=O)CNCc1ccco1
EC50 [1]: > 53 µM (inactive)
IC50 [2]: > 47.1 µM (inactive)

COc1ccc(NC(=O)CN(C)S(=O)(=O)c2ccc(Br)s2)cc1OC
EC50 [7]: > 260 µM (inactive)

CCn1c(CNC(C)=O)nnc1SCC(=O)c1ccc(Br)cc1
EC50 [7]: > 260 µM (inactive)

O=C(NCc1nnc2c3ccccc3c(-c3ccccc3)nn12)c1ccc(Cl)cc1
CC50 [8]: 7.36 µM (active)
